{"source": "paper PMC6385087", "about": "“New Multitarget Hybrids Bearing Tacrine and Phenylbenzothiazole Motifs as Potential Drug Candidates for Alzheimer’s Disease” (Molecules, 2019)", "key": {"SH-SY5Y cells [1]": {"system": "SH-SY5Y cells", "assay": "Dose-response screening for non-toxic concentration, MTT reduction", "assay_type": "cell-based", "conditions": "dose-response screening from 0.2 μM to 5 μM, 25 h", "method": "(§1) The neuroprotective effect of TAC-PhBTA conjugates was evaluated using SH-SY5Y cells treated with Aβ1–42 peptides or ascorbate/iron. For each compound, a dose-response curve was performed to select a non-toxic concentration in order to analyze its neuroprotective effect (Figure 3).\nSH-SY5Y human neuroblastoma cell line (ATCC-CRL-2266) grown in Dulbecco’s modified Eagle’s medium (DMEM) obtained from Gibco-Invitrogen (Life Technologies Ltd., Liverpool, UK) with 10% heat inactivated fetal calf serum, containing 50 U/mL penicillin, and 50 μg/mL streptomycin, under a humidified atmosphere of 95% air-5% CO2 at 37 °C. Cells were plated at 0.12 × 10^6 cells/mL for cell viability assay. […]. As a result we selected a 2.5 μM final concentration for compound 16; 0.5 μM final concentration for compound 17; 0.2 μM final concentration for compounds 14 and 15; and a 1 μM final concentration for compounds 19 and 18. […] The compounds were added to the cell media 1 h before the incubation with Aβ1–42 or ferrous sulfate/L-ascorbic acid. Aβ1–42 or ferrous sulfate/L-ascorbic acid where incubated alone or with the compound for an additional 24 h. Aβ1–42 was prepared as 276.9 μM stock in sterile water and added to the medium at 1 μM final concentration. Ferrous sulfate was freshly prepared as 0.36 M stock in water and added to the medium at 500 μM final concentration. L-Ascorbic Acid was freshly prepared as 80 mM stock in water and added to the medium at 5 mM final concentration. Aβ1–42 was purchased from Bachem (Torrance, CA, USA) and ferrous sulfate and L-ascorbic acid from Sigma Chemical Co (St. Louis, MO, USA).\nCell viability was determined by a MTT (3-(4,5-dimethylthiazol-2-yl)-2,5-diphenyltetrazolium bromide) reduction test. In viable cells, the enzyme succinate dehydrogenase metabolizes MTT into formazan that absorbs light at 570 nm. Following the cell treatment protocol the medium was aspirated and 0.5 mL MTT (0.5 mg/mL) was added to each well. The plate was then incubated at 37 °C for 1 h 30 min protected from light. At the end of the incubation period the formazan precipitates were solubilized with 0.5 mL of acidic isopropanol (0.04 M HCl/isopropanol). The absorbance was measured at 570 nm. Cell reduction ability was expressed as a percentage of untreated control cells."}, "SH-SY5Y cells [2]": {"system": "SH-SY5Y cells", "assay": "Neuroprotection against Aβ1–42 induced toxicity, MTT reduction", "assay_type": "cell-based, human", "conditions": "Aβ1-42 1 μM, 24 h after 1 h pre-treatment, compounds: 16 2.5 µM, 17 0.5 µM, 14 and 15 0.2 µM, 19 and 18 1 µM", "method": "as §1\nSH-SY5Y human neuroblastoma cell line (ATCC-CRL-2266) grown in Dulbecco’s modified Eagle’s medium (DMEM) obtained from Gibco-Invitrogen (Life Technologies Ltd., Liverpool, UK) with 10% heat inactivated fetal calf serum, containing 50 U/mL penicillin, and 50 μg/mL streptomycin, under a humidified atmosphere of 95% air-5% CO2 at 37 °C. Cells were plated at 0.12 × 10^6 cells/mL for cell viability assay. The tested compounds (16, 17, 14, 15, 19 and 18) were dissolved in DMSO at a concentration of 25 mM and aliquots were stored at −20 °C. We performed a dose-response screening (from 0.2 μM to 5 μM) in order to choose the highest non-toxic concentration. As a result we selected a 2.5 μM final concentration for compound 16; 0.5 μM final concentration for compound 17; 0.2 μM final concentration for compounds 14 and 15; and a 1 μM final concentration for compounds 19 and 18. […] The compounds were added to the cell media 1 h before the incubation with Aβ1–42 or ferrous sulfate/L-ascorbic acid. Aβ1–42 or ferrous sulfate/L-ascorbic acid where incubated alone or with the compound for an additional 24 h. Aβ1–42 was prepared as 276.9 μM stock in sterile water and added to the medium at 1 μM final concentration. Ferrous sulfate was freshly prepared as 0.36 M stock in water and added to the medium at 500 μM final concentration. L-Ascorbic Acid was freshly prepared as 80 mM stock in water and added to the medium at 5 mM final concentration. […]\nCell viability was determined by a MTT (3-(4,5-dimethylthiazol-2-yl)-2,5-diphenyltetrazolium bromide) reduction test. […] The absorbance was measured at 570 nm. Cell reduction ability was expressed as a percentage of untreated control cells.\nAll data were expressed as mean ± S.E.M. of at least three independent experiments performed in duplicates. […]"}}, "note": "“Also recorded” adds a separate entry of the source.", "data": [{"smiles": "COc1cc(-c2nc3ccccc3s2)ccc1OCC(=O)NCCCNc1c2c(nc3ccccc13)CCCC2", "note": "[compound 16, 2-(4-(Benzo[d]thiazol-2-yl)-2-methoxyphenoxy)-N-(3-((1,2,3,4-tetrahydroacridin-9-yl)amino)propyl)acetamide]", "values": [{"measurement": "Highest non-toxic concentration selected", "setting": "SH-SY5Y cells [1]", "value": 2.5, "unit": "µM"}, {"measurement": "Prevention of Aβ-induced cell toxicity (cell viability, MTT)", "setting": "SH-SY5Y cells [2]", "value": "capacity to prevent Aβ-induced toxicity; also recorded: prevented Aβ-induced cell toxicity"}]}, {"smiles": "COc1cc(-c2nc3ccccc3s2)ccc1OCC(=O)NCC(O)CNc1c2c(nc3cc(Cl)ccc13)CCCC2", "note": "(stereo not drawn) [compound 19, 2-(4-(Benzo[d]thiazol-2-yl)-2-methoxyphenoxy)-N-(3-((6-chloro-1,2,3,4-tetrahydroacridin-9-yl)amino)-2-hydroxypropyl)acetamide]", "values": [{"measurement": "Highest non-toxic concentration selected", "setting": "SH-SY5Y cells [1]", "value": 1, "unit": "µM"}, {"measurement": "Prevention of Aβ-induced cell toxicity (cell viability, MTT)", "setting": "SH-SY5Y cells [2]", "value": "capacity to prevent Aβ-induced toxicity; also recorded: prevented Aβ-induced cell toxicity"}]}, {"smiles": "COc1cc(-c2nc3ccccc3s2)ccc1OCC(=O)NCCNc1c2c(nc3cc(Cl)ccc13)CCCC2", "note": "[compound 15, 2-(4-(Benzo[d]thiazol-2-yl)-2-methoxyphenoxy)-N-(2-((6-chloro-1,2,3,4 tetrahydroacridin-9-yl)amino)ethyl)acetamide]", "values": [{"measurement": "Highest non-toxic concentration selected", "setting": "SH-SY5Y cells [1]", "value": 0.2, "unit": "µM"}, {"measurement": "Prevention of Aβ-induced cell toxicity (cell viability, MTT)", "setting": "SH-SY5Y cells [2]", "value": "capacity to prevent Aβ-induced toxicity; also recorded: prevented Aβ-induced cell toxicity"}]}]}
